Source: US20230365546A1, “5-SUBSTITUTED INDOLE 3-AMIDE DERIVATIVES, PREPARATION METHOD AND USE THEREOF” (ORIGIANT PHARMACEUTICAL CO., LTD, priority 2020, published 2023)

What was measured:
[1] = molecular target: MEK1(h) (Homo sapiens (Human), UniProt Q02750); test: Kinase Profiler 10 μM panel
Experimental: (§1) In vitro kinase assays were conducted using Kinase Profiler services provided by Eurofins. The experimental method was as follows: the small molecule compound to be tested (0.001-10 μM), the protein kinase to be tested were incubated with a buffer containing substrate, 10 mM magnesium acetate, and [γ-^33P-ATP], the reaction was started by adding Mg\TPmix, after incubation for a period of time at room temperature, a 3% phosphate solution was added to the buffer to stop the reaction. Subsequently, 10 μL of the reaction mixture was quantitatively pipetted onto P30 filter paper, which was washed three times with 75 mM phosphate solution and then once with methanol. The P30 filter paper was air-dried and scintillation fluid was added for scintillation counting.

[2] = molecular target: EphA2(h) (Homo sapiens (Human), UniProt P29317); test: Kinase Profiler 10 μM panel
Experimental: as §1

[3] = molecular target: CHK2(I157T)(h) (Homo sapiens (Human), UniProt O96017, I157T); test: Kinase Profiler 10 μM panel
Experimental: as §1

[4] = molecular target: Met(Y1248C)(h) (Homo sapiens (Human), UniProt P08581, Y1230C); test: Kinase Profiler 10 μM panel
Experimental: as §1

[5] = molecular target: MAPK2(h) (Homo sapiens (Human), UniProt P28482); test: Kinase Profiler 10 μM panel
Experimental: as §1

[6] = molecular target: MAP4K5(h) (Homo sapiens (Human), UniProt Q9Y4K4); test: Kinase Profiler 10 μM panel
Experimental: as §1

[7] = molecular target: Lck(h) (Homo sapiens (Human), UniProt P06239); test: Kinase Profiler 10 μM panel
Experimental: as §1

[8] = molecular target: BRK(h) (Homo sapiens (Human), UniProt Q13882); test: Kinase Profiler 10 μM panel
Experimental: as §1

[9] = molecular target: PAK4(h) (Homo sapiens (Human), UniProt O96013); test: Kinase Profiler 10 μM panel
Experimental: as §1

[10] = molecular target: CHK2(R145W)(h) (Homo sapiens (Human), UniProt O96017, R145W); test: Kinase Profiler 10 μM panel
Experimental: as §1

[11] = molecular target: c-RAF(h) (Homo sapiens (Human), UniProt P04049, Y340D/Y341D); test: Kinase Profiler 10 μM panel
Experimental: as §1

[12] = molecular target: Fes(h) (Homo sapiens (Human), UniProt P07332); test: Kinase Profiler 10 μM panel
Experimental: as §1

[13] = molecular target: CaMKIIδ(h) (Homo sapiens (Human), UniProt Q13557); test: Kinase Profiler 10 μM panel
Experimental: as §1

[14] = molecular target: MRCKβ(h) (Homo sapiens (Human), UniProt Q9Y5S2); test: Kinase Profiler 10 μM panel
Experimental: as §1

[15] = molecular target: cKit(D816V)(h) (Homo sapiens (Human), UniProt P10721, D816V); test: Kinase Profiler 10 μM panel
Experimental: as §1

[16] = molecular target: Abl(T315I)(h) (Homo sapiens (Human), UniProt P00519, T315I); test: Kinase Profiler 10 μM panel
Experimental: as §1

[17] = molecular target: Met(Y1248H)(h) (Homo sapiens (Human), UniProt P08581, Y1230H); test: Kinase Profiler 10 μM panel
Experimental: as §1

[18] = molecular target: DYRK1A(h) (Homo sapiens (Human), UniProt Q13627); test: Kinase Profiler 10 μM panel
Experimental: as §1

[19] = molecular target: CLK4(h) (Homo sapiens (Human), UniProt Q9HAZ1); test: Kinase Profiler 10 μM panel
Experimental: as §1

[20] = molecular target: NUAK2(h) (Homo sapiens (Human), UniProt Q9H093); test: Kinase Profiler 10 μM panel
Experimental: as §1

[21] = molecular target: Pim-1(h) (Homo sapiens (Human), UniProt P11309); test: Kinase Profiler 10 μM panel
Experimental: as §1

[22] = molecular target: CDK12/cyclinK(h) (Homo sapiens (Human), UniProt Q9NYV4); test: Kinase Profiler 10 μM panel
Experimental: as §1

[23] = molecular target: ATM(h) (Homo sapiens (Human), UniProt Q13315); test: Kinase Profiler 10 μM panel
Experimental: as §1

[24] = molecular target: PI3 Kinase (p110a(H1047R)/p85a)(h) (Homo sapiens (Human), UniProt P42336, H1047R); test: Kinase Profiler 10 μM panel
Experimental: as §1

[25] = molecular target: CLK3(h) (Homo sapiens (Human), UniProt P49761); test: Kinase Profiler 10 μM panel
Experimental: as §1

[26] = molecular target: DYRK1B(h) (Homo sapiens (Human), UniProt Q9Y463); test: Kinase Profiler 10 μM panel
Experimental: as §1

[27] = molecular target: MELK(h) (Homo sapiens (Human), UniProt Q14680); test: Kinase Profiler 10 μM panel
Experimental: as §1

[28] = molecular target: TrkA(h) (Homo sapiens (Human), UniProt P04629); test: Kinase Profiler 10 μM panel
Experimental: as §1

[29] = molecular target: WNK4(h) (Homo sapiens (Human), UniProt Q96J92); test: Kinase Profiler 10 μM panel
Experimental: as §1

[30] = molecular target: KDR(h) (Homo sapiens (Human), UniProt P35968); test: Kinase Profiler 10 μM panel
Experimental: as §1

[31] = molecular target: PKCη(h) (Homo sapiens (Human), UniProt P24723); test: Kinase Profiler 10 μM panel
Experimental: as §1

[32] = molecular target: RIPK1 (Homo sapiens (Human), UniProt Q13546); test: In vitro kinase assay (Eurofins Kinase Profiler), IC50; assay type: biochemical; conditions: 0.001-10 μM, read-out: RIPK 1 (IC50)

Sequence of cKit(D816V)(h) (P10721 26-976 D816V): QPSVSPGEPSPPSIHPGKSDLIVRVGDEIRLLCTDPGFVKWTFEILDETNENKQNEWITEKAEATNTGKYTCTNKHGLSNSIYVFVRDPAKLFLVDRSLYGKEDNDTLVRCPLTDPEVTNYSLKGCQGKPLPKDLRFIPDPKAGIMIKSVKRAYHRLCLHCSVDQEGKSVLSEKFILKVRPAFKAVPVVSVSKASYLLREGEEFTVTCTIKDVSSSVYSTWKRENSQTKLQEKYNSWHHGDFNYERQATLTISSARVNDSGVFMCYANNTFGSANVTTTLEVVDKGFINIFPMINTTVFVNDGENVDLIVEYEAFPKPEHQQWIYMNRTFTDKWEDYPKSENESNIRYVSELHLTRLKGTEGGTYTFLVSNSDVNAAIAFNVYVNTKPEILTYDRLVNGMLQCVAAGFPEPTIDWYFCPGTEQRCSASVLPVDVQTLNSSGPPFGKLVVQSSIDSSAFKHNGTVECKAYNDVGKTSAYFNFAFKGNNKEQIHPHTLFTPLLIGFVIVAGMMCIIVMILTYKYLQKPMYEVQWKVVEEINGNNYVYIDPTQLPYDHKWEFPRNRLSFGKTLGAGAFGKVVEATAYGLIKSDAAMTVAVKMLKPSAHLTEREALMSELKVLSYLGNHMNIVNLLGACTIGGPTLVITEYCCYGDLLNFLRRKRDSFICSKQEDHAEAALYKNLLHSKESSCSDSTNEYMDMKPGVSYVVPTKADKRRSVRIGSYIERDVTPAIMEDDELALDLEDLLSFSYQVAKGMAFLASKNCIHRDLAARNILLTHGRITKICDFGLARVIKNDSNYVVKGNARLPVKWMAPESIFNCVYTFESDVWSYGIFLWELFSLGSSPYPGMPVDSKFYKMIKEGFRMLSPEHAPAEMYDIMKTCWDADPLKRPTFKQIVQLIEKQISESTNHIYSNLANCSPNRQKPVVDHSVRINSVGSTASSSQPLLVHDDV
Sequence of MELK(h) (Q14680 whole entry): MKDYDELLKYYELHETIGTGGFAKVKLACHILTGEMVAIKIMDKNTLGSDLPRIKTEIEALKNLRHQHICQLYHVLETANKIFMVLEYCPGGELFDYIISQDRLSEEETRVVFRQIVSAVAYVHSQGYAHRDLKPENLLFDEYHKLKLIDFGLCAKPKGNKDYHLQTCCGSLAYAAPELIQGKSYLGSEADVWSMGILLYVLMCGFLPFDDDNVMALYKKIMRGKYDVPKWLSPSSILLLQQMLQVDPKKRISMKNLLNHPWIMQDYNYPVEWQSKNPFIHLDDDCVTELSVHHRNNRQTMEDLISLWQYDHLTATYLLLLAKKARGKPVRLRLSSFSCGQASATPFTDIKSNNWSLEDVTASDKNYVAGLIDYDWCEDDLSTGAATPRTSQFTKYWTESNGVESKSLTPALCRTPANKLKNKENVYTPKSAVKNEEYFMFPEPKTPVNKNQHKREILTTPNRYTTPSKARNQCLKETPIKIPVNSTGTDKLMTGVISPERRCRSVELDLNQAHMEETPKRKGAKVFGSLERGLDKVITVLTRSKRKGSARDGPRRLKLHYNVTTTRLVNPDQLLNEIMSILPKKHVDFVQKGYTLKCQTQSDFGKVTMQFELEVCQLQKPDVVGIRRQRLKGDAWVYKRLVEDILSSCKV
Sequence of CDK12/cyclinK(h) (Q9NYV4 whole entry): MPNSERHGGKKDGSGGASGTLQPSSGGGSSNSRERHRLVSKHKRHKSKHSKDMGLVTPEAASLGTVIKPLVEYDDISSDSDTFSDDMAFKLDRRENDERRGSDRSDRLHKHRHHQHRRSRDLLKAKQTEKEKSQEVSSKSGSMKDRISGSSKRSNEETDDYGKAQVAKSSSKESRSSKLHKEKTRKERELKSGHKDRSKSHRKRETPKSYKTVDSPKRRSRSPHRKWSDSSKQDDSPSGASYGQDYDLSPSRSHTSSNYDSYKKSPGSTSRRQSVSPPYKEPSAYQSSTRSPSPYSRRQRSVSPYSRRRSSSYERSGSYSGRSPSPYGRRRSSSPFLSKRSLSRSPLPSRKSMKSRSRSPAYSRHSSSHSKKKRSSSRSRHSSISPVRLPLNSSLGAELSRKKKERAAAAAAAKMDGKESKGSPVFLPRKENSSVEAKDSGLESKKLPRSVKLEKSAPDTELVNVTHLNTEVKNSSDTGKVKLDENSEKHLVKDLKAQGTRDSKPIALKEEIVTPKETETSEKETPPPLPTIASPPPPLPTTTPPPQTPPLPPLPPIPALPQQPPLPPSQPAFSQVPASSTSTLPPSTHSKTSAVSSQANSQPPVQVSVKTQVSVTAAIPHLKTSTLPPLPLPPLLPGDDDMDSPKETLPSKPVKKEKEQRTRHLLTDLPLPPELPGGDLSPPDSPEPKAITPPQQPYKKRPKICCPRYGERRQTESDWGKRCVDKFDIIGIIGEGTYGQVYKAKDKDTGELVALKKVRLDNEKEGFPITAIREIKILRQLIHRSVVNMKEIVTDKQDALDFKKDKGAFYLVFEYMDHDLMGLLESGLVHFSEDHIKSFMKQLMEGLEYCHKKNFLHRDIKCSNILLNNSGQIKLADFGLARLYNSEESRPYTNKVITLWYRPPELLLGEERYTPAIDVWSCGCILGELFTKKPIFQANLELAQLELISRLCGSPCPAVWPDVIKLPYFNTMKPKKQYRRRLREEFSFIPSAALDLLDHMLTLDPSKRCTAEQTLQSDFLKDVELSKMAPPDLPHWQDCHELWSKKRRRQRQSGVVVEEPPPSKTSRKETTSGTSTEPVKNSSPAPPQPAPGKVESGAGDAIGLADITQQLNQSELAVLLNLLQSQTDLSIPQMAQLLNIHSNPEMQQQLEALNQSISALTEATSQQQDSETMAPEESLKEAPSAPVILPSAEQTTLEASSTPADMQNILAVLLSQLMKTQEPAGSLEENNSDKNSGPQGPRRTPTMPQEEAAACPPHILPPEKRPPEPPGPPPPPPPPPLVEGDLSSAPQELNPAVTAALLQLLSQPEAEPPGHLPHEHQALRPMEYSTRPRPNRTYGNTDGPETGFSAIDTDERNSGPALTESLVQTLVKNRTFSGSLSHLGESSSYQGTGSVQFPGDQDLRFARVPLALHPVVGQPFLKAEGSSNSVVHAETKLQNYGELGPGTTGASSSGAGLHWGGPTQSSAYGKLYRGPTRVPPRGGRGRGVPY
Sequence of CDK12/cyclinK(h) (O75909 whole entry partner): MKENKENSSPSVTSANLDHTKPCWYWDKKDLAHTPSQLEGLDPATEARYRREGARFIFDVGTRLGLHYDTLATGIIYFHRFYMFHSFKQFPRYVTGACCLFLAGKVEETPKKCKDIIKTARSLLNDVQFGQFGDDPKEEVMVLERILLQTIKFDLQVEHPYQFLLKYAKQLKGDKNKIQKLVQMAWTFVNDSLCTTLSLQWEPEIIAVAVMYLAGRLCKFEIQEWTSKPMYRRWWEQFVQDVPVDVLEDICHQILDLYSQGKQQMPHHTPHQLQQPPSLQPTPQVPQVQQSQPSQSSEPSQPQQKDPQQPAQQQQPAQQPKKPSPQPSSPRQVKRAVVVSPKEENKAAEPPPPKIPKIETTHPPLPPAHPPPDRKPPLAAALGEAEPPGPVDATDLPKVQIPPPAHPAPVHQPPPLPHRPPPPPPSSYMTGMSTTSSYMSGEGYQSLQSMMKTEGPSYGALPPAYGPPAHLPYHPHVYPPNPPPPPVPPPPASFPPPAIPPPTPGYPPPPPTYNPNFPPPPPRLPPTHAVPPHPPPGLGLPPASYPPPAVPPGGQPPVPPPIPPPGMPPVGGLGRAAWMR
Sequence of CLK3(h) (P49761 whole entry): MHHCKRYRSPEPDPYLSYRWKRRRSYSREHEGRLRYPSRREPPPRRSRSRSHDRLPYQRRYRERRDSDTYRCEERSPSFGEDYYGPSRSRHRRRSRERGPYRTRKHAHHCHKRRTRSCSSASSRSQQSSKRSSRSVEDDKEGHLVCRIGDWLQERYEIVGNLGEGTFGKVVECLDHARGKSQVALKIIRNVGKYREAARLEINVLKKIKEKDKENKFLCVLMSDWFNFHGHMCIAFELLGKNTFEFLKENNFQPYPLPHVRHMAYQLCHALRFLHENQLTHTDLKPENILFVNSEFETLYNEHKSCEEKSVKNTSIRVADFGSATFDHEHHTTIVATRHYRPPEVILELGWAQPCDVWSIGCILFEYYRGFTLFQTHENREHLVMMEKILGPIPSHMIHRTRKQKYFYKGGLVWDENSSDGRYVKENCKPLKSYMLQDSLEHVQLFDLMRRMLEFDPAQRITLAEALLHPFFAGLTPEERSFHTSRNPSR
Sequence of Met(Y1248C)(h) (P08581 956-1390 Y1230C limits assumed): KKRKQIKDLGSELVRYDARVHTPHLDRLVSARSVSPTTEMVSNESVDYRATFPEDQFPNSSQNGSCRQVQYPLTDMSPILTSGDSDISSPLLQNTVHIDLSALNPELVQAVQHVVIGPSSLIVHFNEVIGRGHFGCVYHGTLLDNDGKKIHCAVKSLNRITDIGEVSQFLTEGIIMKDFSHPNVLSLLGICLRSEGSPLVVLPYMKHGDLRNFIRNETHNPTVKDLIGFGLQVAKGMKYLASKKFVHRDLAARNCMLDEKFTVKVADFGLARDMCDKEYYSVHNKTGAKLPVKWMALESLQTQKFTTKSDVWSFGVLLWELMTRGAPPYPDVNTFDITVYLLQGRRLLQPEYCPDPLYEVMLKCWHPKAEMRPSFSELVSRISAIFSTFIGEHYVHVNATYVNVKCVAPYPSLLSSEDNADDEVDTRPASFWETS
Sequence of MEK1(h) (Q02750 whole entry): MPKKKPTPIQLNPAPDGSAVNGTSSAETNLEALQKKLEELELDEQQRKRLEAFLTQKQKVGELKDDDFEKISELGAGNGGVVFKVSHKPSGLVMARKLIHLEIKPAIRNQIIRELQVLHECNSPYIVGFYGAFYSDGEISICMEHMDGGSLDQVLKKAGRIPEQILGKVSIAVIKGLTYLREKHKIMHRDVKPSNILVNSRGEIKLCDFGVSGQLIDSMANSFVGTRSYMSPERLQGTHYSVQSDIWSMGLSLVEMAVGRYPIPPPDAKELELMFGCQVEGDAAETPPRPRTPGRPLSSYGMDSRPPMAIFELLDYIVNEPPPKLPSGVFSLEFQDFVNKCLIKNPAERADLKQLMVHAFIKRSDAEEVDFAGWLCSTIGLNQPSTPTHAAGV

Compound: C[C@H](NC(=O)c1c[nH]c2ccc(-c3ccc4nc(NC(=O)C5CC5)sc4c3)cc12)c1cccc(F)c1 [Compound 34, (S)-5-(2-(cyclopropanecarboxamido)benzo[d]thiazol-6-yl)-N-(1-(3-fluorophenyl)ethyl)-1H-indole-3-carboxamide]
- Inhibition ratio [1]: 12%
- Inhibition ratio [2]: 38%
- Inhibition ratio [3]: 24%
- Inhibition ratio [4]: 99%
- Inhibition ratio [5]: 11%
- Inhibition ratio [6]: 64%
- Inhibition ratio [7]: 65%
- Inhibition ratio [8]: 4%
- Inhibition ratio [9]: 10%
- Inhibition ratio [10]: 37%
- Inhibition ratio [11]: 15%
- Inhibition ratio [12]: 26%
- Inhibition ratio [13]: 22%
- Inhibition ratio [14]: −5%
- Inhibition ratio [15]: 0%
- Inhibition ratio [16]: 101%
- Inhibition ratio [17]: 107%
- Inhibition ratio [18]: 47%
- Inhibition ratio [19]: 79%
- Inhibition ratio [20]: 9%
- Inhibition ratio [21]: 3%
- Inhibition ratio [22]: 21%
- Inhibition ratio [23]: 3%
- Inhibition ratio [24]: 34%
- Inhibition ratio [25]: 35%
- Inhibition ratio [26]: 12%
- Inhibition ratio [27]: 36%
- Inhibition ratio [28]: 102%
- Inhibition ratio [29]: 17%
- Inhibition ratio [30]: 83%
- Inhibition ratio [31]: −3%
- IC50 [32]: 10 to 100 nM

Compound: C[C@H](NC(=O)c1cn(C)c2ccc(-c3ccn4nc(NC(=O)C5CC5)nc4c3)cc12)c1cccc(F)c1 [Compound 94, (S)-5-(2-(cyclopropanecarboxamido)-[1,2,4]triazolo[1,5-a]pyridin-7-yl)-N-(1-(3-fluorophenyl)ethyl)-1-methyl-1H-indole-3-carboxamide]
- Inhibition ratio/% [1]: 43%
- Inhibition ratio/% [2]: 15%
- Inhibition ratio/% [3]: 61%
- Inhibition ratio/% [4]: 11%
- Inhibition ratio/% [5]: 40%
- Inhibition ratio/% [6]: 6%
- Inhibition ratio/% [7]: 44%
- Inhibition ratio/% [8]: 47%
- Inhibition ratio/% [9]: 5%
- Inhibition ratio/% [10]: 69%
- Inhibition ratio/% [11]: −13%
- Inhibition ratio/% [12]: 54%
- Inhibition ratio/% [13]: −11%
- Inhibition ratio/% [14]: −4%
- Inhibition ratio/% [15]: 75%
- Inhibition ratio/% [16]: 33%
- Inhibition ratio/% [17]: −11%
- Inhibition ratio/% [18]: 2%
- Inhibition ratio/% [19]: 79%
- Inhibition ratio/% [20]: 30%
- Inhibition ratio/% [21]: 9%
- Inhibition ratio/% [22]: −8%
- Inhibition ratio/% [23]: −15%
- Inhibition ratio/% [24]: 24%
- Inhibition ratio/% [25]: 35%
- Inhibition ratio/% [26]: −1%
- Inhibition ratio/% [27]: 1%
- Inhibition ratio/% [28]: −12%
- Inhibition ratio/% [29]: 48%
- Inhibition ratio/% [30]: −12%
- Inhibition ratio/% [31]: 27%
- IC50 [32]: 1 to 10 nM
